According to the supplement of paper PMC8671470:

Tested on: KU-812
Test: cell viability (% survival relative to DMSO control, bortezomib = 0%); higher = less cytotoxic
Conditions: 100 nM; 72 h
Outline: (§1)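 After 72 h at 37 °C with 5% CO2, cell viability in 384-well plates was measured by CellTiter-Glo luminescence. The plates held compounds pre-printed at 1, 10, 100, 1000 or 10000 nM in duplicate, and cells from 10 AML and 5 CML lines seeded at densities titrated to linear growth. Percent survival is the duplicate mean, normalised to vehicle as 100% and a 10 µM positive control as 0%.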

In order of falling cell viability:
1. N[C@@H](CCC(=O)N[C@@H](CS)C(=O)NCC(=O)O)C(=O)O [Glutathione]  108%
2. NS(=O)(=O)c1ccc(S(=O)(=O)Nc2cccc3c(Cl)c[nH]c23)cc1 [Indisulam]  108%
3. Clc1cc(Cl)c(OCC#CI)cc1Cl [Haloprogin]  107%
4. O=c1[nH]c(=O)n([C@H]2C[C@H](O)[C@@H](CO)O2)cc1I [Idoxuridine]  102%
5. CC1Cc2ccccc2N1NC(=O)c1ccc(Cl)c(S(N)(=O)=O)c1 (centres undefined) [Indapamide]  95.8%
6. COc1ccc2c(c1)c(CC(=O)O)c(C)n2C(=O)c1ccc(Cl)cc1 [Indomethacine]  95.6%
7. Cn1cc(C[C@@H](N)C(=O)O)c2ccccc21 [Indoximod]  90.9%
8. O=c1oc2c(cc1O)oc(=O)c1cc(O)c(O)c(O)c12 [Galloflavin]  90.7%
9. Nc1ccn([C@@H]2O[C@H](CO)[C@@H](O)C2(F)F)c(=O)n1 [Gemcitabine]  7.87%

Same assay, conditions: 1000 nM; 72 h

In order of falling cell viability:
1. Cn1cc(C[C@@H](N)C(=O)O)c2ccccc21 [Indoximod]  105%
2. CC1Cc2ccccc2N1NC(=O)c1ccc(Cl)c(S(N)(=O)=O)c1 (centres undefined) [Indapamide]  104%
3. O=c1oc2c(cc1O)oc(=O)c1cc(O)c(O)c(O)c12 [Galloflavin]  96.6%
4. OC[C@H]1N[C@@H](c2c[nH]c3c(O)ncnc23)[C@H](O)[C@@H]1O [Forodesine]  96.4%
5. COc1ccc2c(c1)c(CC(=O)O)c(C)n2C(=O)c1ccc(Cl)cc1 [Indomethacine]  96.4%
6. N[C@@H](CCC(=O)N[C@@H](CS)C(=O)NCC(=O)O)C(=O)O [Glutathione]  96%
7. O=c1[nH]c(=O)n([C@H]2C[C@H](O)[C@@H](CO)O2)cc1I [Idoxuridine]  88.6%
8. Clc1cc(Cl)c(OCC#CI)cc1Cl [Haloprogin]  80.6%
9. NS(=O)(=O)c1ccc(S(=O)(=O)Nc2cccc3c(Cl)c[nH]c23)cc1 [Indisulam]  29.9%
10. Nc1ccn([C@@H]2O[C@H](CO)[C@@H](O)C2(F)F)c(=O)n1 [Gemcitabine]  6.94%

Same assay, conditions: 10000 nM; 72 h

In order of rising cell viability:
1. Clc1cc(Cl)c(OCC#CI)cc1Cl [Haloprogin]  2.77%
2. Nc1ccn([C@@H]2O[C@H](CO)[C@@H](O)C2(F)F)c(=O)n1 [Gemcitabine]  6.04%
3. NS(=O)(=O)c1ccc(S(=O)(=O)Nc2cccc3c(Cl)c[nH]c23)cc1 [Indisulam]  13.7%
4. O=c1[nH]c(=O)n([C@H]2C[C@H](O)[C@@H](CO)O2)cc1I [Idoxuridine]  66.5%
5. OC[C@H]1N[C@@H](c2c[nH]c3c(O)ncnc23)[C@H](O)[C@@H]1O [Forodesine]  75.4%
6. COc1ccc2c(c1)c(CC(=O)O)c(C)n2C(=O)c1ccc(Cl)cc1 [Indomethacine]  80%
7. CC1Cc2ccccc2N1NC(=O)c1ccc(Cl)c(S(N)(=O)=O)c1 (centres undefined) [Indapamide]  89.7%
8. Cn1cc(C[C@@H](N)C(=O)O)c2ccccc21 [Indoximod]  95.6%
9. N[C@@H](CCC(=O)N[C@@H](CS)C(=O)NCC(=O)O)C(=O)O [Glutathione]  96.5%
10. O=c1oc2c(cc1O)oc(=O)c1cc(O)c(O)c(O)c12 [Galloflavin]  105%

Tested on: ML-2
Test: as above
Conditions: 1 nM; 72 h
Outline: as §1

In order of falling cell viability:
1. COc1ccc2c(c1)c(CC(=O)O)c(C)n2C(=O)c1ccc(Cl)cc1 [Indomethacine]  108%
2. Clc1cc(Cl)c(OCC#CI)cc1Cl [Haloprogin]  106%
3. O=c1oc2c(cc1O)oc(=O)c1cc(O)c(O)c(O)c12 [Galloflavin]  101%
4. NS(=O)(=O)c1ccc(S(=O)(=O)Nc2cccc3c(Cl)c[nH]c23)cc1 [Indisulam]  99.1%
5. O=c1[nH]c(=O)n([C@H]2C[C@H](O)[C@@H](CO)O2)cc1I [Idoxuridine]  98.1%
6. Cn1cc(C[C@@H](N)C(=O)O)c2ccccc21 [Indoximod]  97.8%
7. Nc1ccn([C@@H]2O[C@H](CO)[C@@H](O)C2(F)F)c(=O)n1 [Gemcitabine]  96.3%
8. CC1Cc2ccccc2N1NC(=O)c1ccc(Cl)c(S(N)(=O)=O)c1 (centres undefined) [Indapamide]  94.1%
9. N[C@@H](CCC(=O)N[C@@H](CS)C(=O)NCC(=O)O)C(=O)O [Glutathione]  93.2%
10. OC[C@H]1N[C@@H](c2c[nH]c3c(O)ncnc23)[C@H](O)[C@@H]1O [Forodesine]  92.7%

Same assay, conditions: 10 nM; 72 h

In order of falling cell viability:
1. Clc1cc(Cl)c(OCC#CI)cc1Cl [Haloprogin]  108%
2. N[C@@H](CCC(=O)N[C@@H](CS)C(=O)NCC(=O)O)C(=O)O [Glutathione]  106%
3. NS(=O)(=O)c1ccc(S(=O)(=O)Nc2cccc3c(Cl)c[nH]c23)cc1 [Indisulam]  104%
4. COc1ccc2c(c1)c(CC(=O)O)c(C)n2C(=O)c1ccc(Cl)cc1 [Indomethacine]  98.3%
5. CC1Cc2ccccc2N1NC(=O)c1ccc(Cl)c(S(N)(=O)=O)c1 (centres undefined) [Indapamide]  98.2%
6. Cn1cc(C[C@@H](N)C(=O)O)c2ccccc21 [Indoximod]  97.2%
7. O=c1oc2c(cc1O)oc(=O)c1cc(O)c(O)c(O)c12 [Galloflavin]  95%
8. O=c1[nH]c(=O)n([C@H]2C[C@H](O)[C@@H](CO)O2)cc1I [Idoxuridine]  92.4%
9. OC[C@H]1N[C@@H](c2c[nH]c3c(O)ncnc23)[C@H](O)[C@@H]1O [Forodesine]  85%
10. Nc1ccn([C@@H]2O[C@H](CO)[C@@H](O)C2(F)F)c(=O)n1 [Gemcitabine]  3.45%

Same assay, conditions: 100 nM; 72 h

In order of rising cell viability:
1. Nc1ccn([C@@H]2O[C@H](CO)[C@@H](O)C2(F)F)c(=O)n1 [Gemcitabine]  1.35%
2. OC[C@H]1N[C@@H](c2c[nH]c3c(O)ncnc23)[C@H](O)[C@@H]1O [Forodesine]  95.3%
3. CC1Cc2ccccc2N1NC(=O)c1ccc(Cl)c(S(N)(=O)=O)c1 (centres undefined) [Indapamide]  97.5%
4. NS(=O)(=O)c1ccc(S(=O)(=O)Nc2cccc3c(Cl)c[nH]c23)cc1 [Indisulam]  97.9%
5. COc1ccc2c(c1)c(CC(=O)O)c(C)n2C(=O)c1ccc(Cl)cc1 [Indomethacine]  98.4%
6. Cn1cc(C[C@@H](N)C(=O)O)c2ccccc21 [Indoximod]  100%
7. N[C@@H](CCC(=O)N[C@@H](CS)C(=O)NCC(=O)O)C(=O)O [Glutathione]  103%
8. O=c1[nH]c(=O)n([C@H]2C[C@H](O)[C@@H](CO)O2)cc1I [Idoxuridine]  105%
9. O=c1oc2c(cc1O)oc(=O)c1cc(O)c(O)c(O)c12 [Galloflavin]  113%
10. Clc1cc(Cl)c(OCC#CI)cc1Cl [Haloprogin]  113%
